From ChEMBL document CHEMBL3120109, “Discovery of Thienoimidazole-Based HCV NS5A Genotype 1a and 1b Inhibitors” (ACS Med Chem Lett, 2014)

Columns and labels:
[1] = test system: Hepatitis C virus; assay: Antiviral activity against Hepatitis C virus genotype 1a infected in W11.8 cells assessed as decrease in NS5A expression in replicon cell after 4 days by luminescence based ELISA; format: functional, organism-based, Hepacivirus hominis; settings: subtype 1a, W11.8, 96 h
[2] = Half life in rat at 3 mg/kg, po; format: ADME, organism-based; parameters: dose 3 mg/kg, route oral; settings: in vivo
[3] = Cytotoxicity against human HuhET cells by [3H]thymidine incorporation assay; format: cell-based
[4] = Half life in rat at 3 mg/kg, iv; format: ADME, organism-based; parameters: dose 3 mg/kg, route intravenous; settings: in vivo
[5] = Clearance in rat at 3 mg/kg, iv; format: ADME, organism-based; parameters: dose 3 mg/kg, route intravenous; settings: in vivo
[6] = test system: Hepatitis C virus; assay: Antiviral activity against Hepatitis C virus genotype 1b infected in human Huh-5.2 cells assessed as decrease in HCV replicon RNA replication after 4 days by luciferase assay; format: functional, organism-based, Hepacivirus hominis; settings: Huh-5-2, 96 h
[7] = AUC (0 to 8 hrs) in rat at 3 mg/kg, po; format: ADME, organism-based; parameters: time < 8 hr, dose 3 mg/kg, route oral; settings: plasma
[8] = Volume of distribution at steady state in rat at 3 mg/kg, iv; format: ADME, organism-based; parameters: dose 3 mg/kg, route intravenous; settings: in vivo, read-out: Vdss
[9] = Oral bioavailability in rat at 3 mg/kg; format: ADME, organism-based; settings: in vivo
[10] = Ratio of EC50 for Hepatitis C virus genotype 1a infected in W11.8 cells to EC50 for Hepatitis C virus genotype 1b infected in human Huh-5.2 cells; format: functional
[11] = test system: Hepatitis C virus; assay: Ratio of EC50 for Hepatitis C virus genotype 1a harboring NS5A M28T mutant gene to EC50 for Hepatitis C virus genotype 1a harboring wild type NS5A; format: functional, Hepacivirus hominis, subtype 1a
[12] = test system: Hepatitis C virus; assay: Ratio of EC50 for Hepatitis C virus genotype 1a harboring NS5A Q30R mutant gene to EC50 for Hepatitis C virus genotype 1a harboring wild type NS5A; format: functional, Hepacivirus hominis, subtype 1a
[13] = Efflux ratio of permeability from basolateral to apical over apical to basolateral side in human Caco2 cells; format: ADME, cell-based; settings: Caco-2
[14] = test system: Hepatitis C virus; assay: Ratio of EC50 for Hepatitis C virus genotype 1a harboring NS5A Y93C mutant gene to EC50 for Hepatitis C virus genotype 1a harboring wild type NS5A; format: functional, Hepacivirus hominis, subtype 1a
[15] = test system: Hepatitis C virus; assay: Ratio of EC50 for Hepatitis C virus genotype 1a harboring NS5A Y93H mutant gene to EC50 for Hepatitis C virus genotype 1a harboring wild type NS5A; format: functional, Hepacivirus hominis, subtype 1a
[16] = Metabolic stability in rat liver microsomes assessed as intact compound level at 5 uM after 1 hr; format: ADME; settings: read-out: Stability
[17] = Metabolic stability in human liver microsomes assessed as intact compound level at 5 uM after 1 hr; format: ADME; settings: read-out: Stability
[18] = test system: Hepatitis C virus; assay: Ratio of EC50 for Hepatitis C virus genotype 1b harboring NS5A Y93H mutant gene to EC50 for Hepatitis C virus genotype 1b harboring wild type NS5A; format: functional, Hepacivirus hominis

Row | EC50 [1] | EC50 [6] | Structure (SMILES) | CC50 [3] | Ratio EC50 [10] | also measured
1 | > 100 nM | 6.8 nM | COC(=O)N[C@H](C(=O)N1C[C@@H](C)C[C@H]1c1ncc(-c2csc3ccc(-c4ccc(-c5cc6[nH]c([C@@H]7C[C@H](C)CN7C(=O)[C@@H](NC(=O)OC)C(C)C)nc6s5)cc4)cc23)[nH]1)C(C)C | 16400 nM |  | 
2 | 0.034 nM | 0.007 nM | COC(=O)N[C@H](C(=O)N1C[C@@H](C)C[C@H]1c1ncc(-c2ccc(-c3ccc(-c4cc5[nH]c([C@@H]6C[C@H](C)CN6C(=O)[C@@H](NC(=O)OC)C(C)C)nc5s4)cc3)s2)[nH]1)C(C)C | 18300 nM | 5 | 
3 | 1.12 nM | 0.01 nM | COC(=O)N[C@H](C(=O)N1C[C@@H](C)C[C@H]1c1ncc(C#Cc2ccc(-c3ccc(-c4cc5[nH]c([C@@H]6C[C@H](C)CN6C(=O)[C@@H](NC(=O)OC)C(C)C)nc5s4)cc3)cc2)[nH]1)C(C)C | > 20000 nM | 112 | 
4 | 0.235 nM | 0.013 nM | COC(=O)N[C@H](C(=O)N1C[C@@H](C)C[C@H]1c1ncc(-c2ccc(-c3ccc(-c4cc5[nH]c([C@@H]6C[C@H](C)CN6C(=O)[C@@H](NC(=O)OC)C(C)C)nc5s4)cc3)c(F)c2)[nH]1)C(C)C | 3100 nM | 18 | 
5 | 0.071 nM | 0.003 nM | COC(=O)N[C@H](C(=O)N1C[C@@H](C)C[C@H]1c1ncc(-c2ccc(-c3ccc(-c4cc5[nH]c([C@@H]6C[C@H](C)CN6C(=O)[C@@H](NC(=O)OC)C(C)C)nc5s4)cc3)cc2F)[nH]1)C(C)C | > 20000 nM |  | 
6 | 0.062 nM | 0.002 nM | COC(=O)N[C@H](C(=O)N1C[C@@H](C)C[C@H]1c1ncc(-c2ccc(-c3ccc(-c4cc5[nH]c([C@@H]6C[C@H](C)CN6C(=O)[C@@H](NC(=O)OC)C(C)C)nc5s4)cc3)c(C)c2)[nH]1)C(C)C | > 20000 nM | 31 | 
7 | 0.114 nM | 0.005 nM | COC(=O)N[C@H](C(=O)N1C[C@@H](C)C[C@H]1c1ncc(-c2ccc(-c3ccc(-c4cc5[nH]c([C@@H]6C[C@H](C)CN6C(=O)[C@@H](NC(=O)OC)C(C)C)nc5s4)cc3)cc2C)[nH]1)C(C)C | > 20000 nM | 23 | 
8 | 7.5 nM | 0.007 nM | COC(=O)N[C@H](C(=O)N1C[C@@H](C)C[C@H]1c1ncc(-c2cccc(-c3ccc(-c4cc5[nH]c([C@@H]6C[C@H](C)CN6C(=O)[C@@H](NC(=O)OC)C(C)C)nc5s4)cc3)c2)[nH]1)C(C)C | > 20000 nM | 1071 | half-life [2]: 5.1 h; half-life [4]: 5.1 h; clearance [5]: 13.5 mL/min/kg; AUC(0-t) at 8 h [7]: 490 ng·h/mL; Vd [8]: 4.8 L/kg; bioavailability [9]: 16%
9 | 0.619 nM | 0.005 nM | COC(=O)N[C@H](C(=O)N1C[C@@H](C)C[C@H]1c1nc2cc(-c3ccc(-c4cc5[nH]c([C@@H]6C[C@H](C)CN6C(=O)[C@@H](NC(=O)OC)C(C)C)nc5s4)cc3)ccc2[nH]1)C(C)C | > 20000 nM |  | 

The remaining lines, values behind:

Row | Structure (SMILES) | EC50 [1] | EC50 [6] | CC50 [3] | Ratio EC50 [10] | also measured
10 | COC(=O)N[C@H](C(=O)N1C[C@@H](C)C[C@H]1c1nc2cc(/C=C/c3ccc(-c4cc5[nH]c([C@@H]6C[C@H](C)CN6C(=O)[C@@H](NC(=O)OC)C(C)C)nc5s4)cc3)ccc2[nH]1)C(C)C | 0.038 nM | 0.004 nM | > 20000 nM |  | half-life [2]: 5 h; half-life [4]: 6.6 h; clearance [5]: 6 mL/min/kg; AUC(0-t) at 8 h [7]: 820 ng·h/mL; Vd [8]: 2.7 L/kg; bioavailability [9]: 14.1%
11 | COC(=O)N[C@H](C(=O)N1C[C@@H](C)C[C@H]1c1ncc(-c2cc3sc(-c4ccc(-c5cc6[nH]c([C@@H]7C[C@H](C)CN7C(=O)[C@@H](NC(=O)OC)C(C)C)nc6s5)cc4)cc3s2)[nH]1)C(C)C | 0.054 nM | 0.014 nM | > 20000 nM | 3.8 | half-life [2]: 10.8 h; half-life [4]: 5.1 h; clearance [5]: 5.1 mL/min/kg; AUC(0-t) at 8 h [7]: 460 ng·h/mL; Vd [8]: 2 L/kg; bioavailability [9]: 6.7%
12 | COC(=O)N[C@H](C(=O)N1C[C@@H](C)C[C@H]1c1ncc(C#Cc2ccc(-c3cc4[nH]c([C@@H]5C[C@H](C)CN5C(=O)[C@@H](NC(=O)OC)C(C)C)nc4s3)cc2)[nH]1)C(C)C | 12 nM | 0.24 nM | > 20000 nM | 50 | 
13 | COC(=O)N[C@H](C(=O)N1C[C@@H](C)C[C@H]1c1ncc(-c2ccc(-c3ccc(-c4cc5[nH]c([C@@H]6C[C@H](C)CN6C(=O)[C@@H](NC(=O)OC)C(C)C)nc5s4)cc3)cc2)[nH]1)C(C)C | 0.017 nM | 0.008 nM | > 20000 nM | 2 | Ratio EC50 [11]: >500; Ratio EC50 [12]: >500; half-life [2]: 8.3 h; efflux ratio [13]: 2; half-life [4]: 6.1 h; Ratio EC50 [14]: >15000; clearance [5]: 5.3 mL/min/kg; Ratio EC50 [15]: >15000; remaining at 1 h, 5 µM [16]: 91%; AUC(0-t) at 8 h [7]: 1540 ng·h/mL; Vd [8]: 2.4 L/kg; remaining at 1 h, 5 µM [17]: 100%; Ratio EC50 [18]: 900; bioavailability [9]: 25.6%
14 | COC(=O)N[C@H](C(=O)N1C[C@@H](C)C[C@H]1c1nc2cc(-c3ccc(-c4ccc(-c5cc6[nH]c([C@@H]7C[C@H](C)CN7C(=O)[C@@H](NC(=O)OC)C(C)C)nc6s5)cc4)cc3)ccc2[nH]1)C(C)C | 0.622 nM | 0.024 nM | > 20000 nM |  | 
15 | COC(=O)N[C@H](C(=O)N1C[C@@H](C)C[C@H]1c1nc2cc(C#Cc3ccc(-c4cc5[nH]c([C@@H]6C[C@H](C)CN6C(=O)[C@@H](NC(=O)OC)C(C)C)nc5s4)cc3)ccc2[nH]1)C(C)C | 0.177 nM | 0.004 nM | > 20000 nM |  | 
16 | COC(=O)N[C@H](C(=O)N1CCC[C@H]1c1ncc(-c2ccc(-c3ccc(-c4cnc([C@@H]5CCCN5C(=O)[C@@H](NC(=O)OC)C(C)C)[nH]4)cc3)cc2)[nH]1)C(C)C [DACLATASVIR] | 0.05 nM |  |  |  | 
